Assay results taken from patent publication US12138398B2, “Methods and devices for providing a stimulus to a subject to induce gamma oscillations” (Massachusetts Institute of Technology, priority 2015, dated 2024).
Entries after “also recorded” stand apart in the source; their conditions may differ.

Legend:
[1] = test system: CK-p25 Tg mice; experiment: Brain weight and lateral ventricle expansion in CK-p25 Tg mice; assay type: in vivo, mouse
Protocol: A study was conducted to examine the effect of gamma exposure and/or administration in accordance with some embodiments on DNA damage and neuronal loss in the visual cortex of a subject. For the study, an inducible mouse model of p25 accumulation (i.e., a creatine kinase carboxyl-terminal fragment p25 Tg mouse (CK-p25 Tg mouse)) was used. […] A study was conducted to compare groups of mice under different treatment regimens. FIG. 84 is a diagram of the groups including CK-control mice 8400, untreated CK-p25 Tg mice 8402, CK-p25 Tg mice treated with memantine (10 mg/kg daily) 8404, CK-p25 Tg mice exposed to the 40-Hz light flicker (one hour daily for 6 weeks) in accordance with some embodiments 8406, and CK-p25 Tg mice treated with memantine and also exposed to the 40-Hz light flicker 8408. Memantine is a medication used with limited success to treat severe AD by blocking NMDA receptors, thereby acting on the glutamatergic system. […] For example, gamma exposure reduced and/or prevented CKp-25-induced loss of brain weight. FIG. 85 is bar graph comparing brain weight change in CK-control mice, untreated CK-p25 Tg mice, CK-p25 Tg mice treated with memantine, CK-p25 Tg mice exposed to the 40-Hz light flicker in accordance with some embodiments, and CK-p25 Tg mice treated with both memantine and the 40-Hz light flicker. Brain weight loss was pronounced in untreated CK-p25 Tg mice, CK-p25 Tg mice treated with memantine, and CK-p25 Tg mice treated with both memantine and the 40-Hz light flicker. However, CK-p25 Tg mice exposed to the 40-Hz light flicker in accordance with some embodiments retained more brain weight. […] For example, gamma exposure reduced and/or prevented CKp-25-induced abnormal lateral ventricle expansion in subjects. FIG. 86 is bar graph comparing fold change of lateral ventricle expansion in CK-control mice, untreated CK-p25 Tg mice, CK-p25 Tg mice treated with memantine, CK-p25 Tg mice exposed to the 40-Hz light flicker in accordance with some embodiments, and CK-p25 Tg mice treated with both memantine and the 40-Hz light flicker with expansion in the CK-control mice as a baseline. Lateral ventricle expansion was pronounced in untreated CK-p25 Tg mice, CK-p25 Tg mice treated with memantine, and CK-p25 Tg mice treated with both memantine and the 40-Hz light flicker. Lateral ventricles in CK-p25 Tg mice exposed to the 40-Hz light flicker in accordance with some embodiments expanded much less than the lateral ventricles in the other CK-p25 Tg mice.

[2] = test system: CK-p25 Tg mice; experiment: γH2AX-positive cells (DNA damage) in CK-p25 Tg mice; assay type: in vivo, mouse
Protocol: A study was conducted to examine the effect of gamma exposure and/or administration in accordance with some embodiments on DNA damage and neuronal loss in the visual cortex of a subject. For the study, an inducible mouse model of p25 accumulation (i.e., a creatine kinase carboxyl-terminal fragment p25 Tg mouse (CK-p25 Tg mouse)) was used. […] A study was conducted to compare groups of mice under different treatment regimens. FIG. 84 is a diagram of the groups including CK-control mice 8400, untreated CK-p25 Tg mice 8402, CK-p25 Tg mice treated with memantine (10 mg/kg daily) 8404, CK-p25 Tg mice exposed to the 40-Hz light flicker (one hour daily for 6 weeks) in accordance with some embodiments 8406, and CK-p25 Tg mice treated with memantine and also exposed to the 40-Hz light flicker 8408. Memantine is a medication used with limited success to treat severe AD by blocking NMDA receptors, thereby acting on the glutamatergic system. DNA double strand breaks (DSB) are one example of DNA damage in eukaryotic cells, causing genomic instability, leading to tumorigenesis and possibly accelerated aging. Phosphorylated histone H2AX (γH2AX) was used as a biomarker of cellular response to DSB. FIG. 99 is bar graph comparing the amount of γH2AX-positive cells in CK-control mice, untreated CK-p25 Tg mice, CK-p25 Tg mice treated with memantine, CK-p25 Tg mice exposed to the 40-Hz light flicker in accordance with some embodiments, and CK-p25 Tg mice treated with both memantine and the 40-Hz light flicker. Cells positive for γH2AX were almost non-existent in CK-control mice, but very high in untreated CK-p25 Tg mice, indicating high amounts of DSB and other DNA damage. Treatment with memantine reduced the amount of γH2AX-positive cells in CK-p25 Tg mice compared to the untreated group. […] Thus, FIG. 99 illustrates how 40-Hz visual flicker treatment in accordance with some embodiments can reduce DNA damage in the visual cortex.

[3] = test system: CK-p25 Tg mice; experiment: Cortical (Hoechst) and neuronal (NeuN) layer thickness in CK-p25 Tg mice; assay type: in vivo, mouse; details: for thickness of neuronal layer of the insular cortex / thickness of SS1-neuronal layer: NeuN; for thickness of SS1-neuronal layer / thickness of SS1-cortical layer: somatosensory cortex
[4] = test system: AD patients; details: AD subjects; cited from earlier work
[5] = memantine + 40-Hz light flicker
[6] = memantine alone, compared to untreated CK-p25 Tg

## CC12CC3CC(C)(C1)CC(N)(C3)C2 [memantine]
[1]; memantine 10 mg/kg daily
  Brain weight loss: pronounced
  Lateral ventricle expansion: pronounced; also recorded: largest
[1]; [5]
  Brain weight loss: pronounced
  Lateral ventricle expansion: pronounced; also recorded: largest
[2]; [5]
  number of γH2AX-positive cells in hippocampus: significantly increased
  number of γH2AX-positive cells in insular cortex: significantly increased
  number of γH2AX-positive cells in somatosensory cortex: significantly increased
  number of γH2AX-positive cells in visual cortex: significantly increased
[2]; [6]
  amount of γH2AX-positive cells in hippocampus: reduced
  amount of γH2AX-positive cells in insular cortex: reduced
  amount of γH2AX-positive cells in somatosensory cortex: reduced
  amount of γH2AX-positive cells in visual cortex: reduced
[3]; [5]
  thickness of neuronal layer of the insular cortex: 848 ± 15 µm
  thickness of cortical layer of the insular cortex: 965 ± 16 µm
  thickness of SS1-neuronal layer: 650 ± 11 µm
  thickness of SS1-cortical layer: 778 ± 13 µm
[3]; memantine alone
  thickness of neuronal layer of the insular cortex: 850 ± 18 µm
  thickness of cortical layer of the insular cortex: 983 ± 12 µm
  thickness of SS1-neuronal layer: 629 ± 9 µm
  thickness of SS1-cortical layer: 756 ± 11 µm
[4]
  clinical outcome on cognition: only mild cognitive benefits
